A melting point compilation (Tetko et al.; mined from patent text by program, amines drawn as free bases though some values may be those of a salt)

melting point [°C] | Compound
159 to 161 | COc1ccc(OC2SCC(O)C(O)C2O)cn1 (configuration not stated)
108 to 113 | COC(=O)CCC(C)C1CCC2C3CC=C4CC(OC(C)=O)CC(OC(C)=O)C4(C)C3CCC12C (configuration not stated)
179 | COc1cccc(N(CC(=O)N(C)c2ccccc2)C(=O)CNC(=O)Nc2cccc(C)c2)c1
194 to 195 | COc1cc2c(c(OC)c1OC)C(=O)c1c-2n(C)c(=O)c2ccccc12
255 to 257 | O=C(O)C1CCc2c([nH]c3ccc(O)cc23)C1 (configuration not stated)
183 to 187 | COC1CC2(C)C(CCC3C4CC=C(C(C)=O)C4(C)CCC32)CC1O (configuration not stated)
119 | CCSc1c(Nc2c(C)c(=O)c2=O)ccc2[nH]cc(CCCO)c12
93 to 94 | CCOc1nc(C2CC2)nc(OC)c1C=O
258 to 259 | CCCOc1ccc(N(C)C)cc1-c1ncc(-c2nnn[nH]2)c(=O)[nH]1
156 to 157 | Nc1ccccc1C(=O)N1Cc2ccccc2C(=O)N1
83 to 84 | CC1(C)CC(O)c2cc(OCc3ccccc3)ccc2O1 (configuration not stated)
174 to 176 | CCOc1ccc(C(=O)NCc2ccc3c(c2)C(=O)N(C2(C)CCC(=O)NC2=O)C3=O)cn1 (configuration not stated)
51 to 53 | CCCOCCCCOCCCCCCNCC(O)c1cc(Cl)c(N)c(Cl)c1 (configuration not stated)
73 to 75 | CCCCCNc1ncnc2c(C(C)C)n[nH]c12
205 to 207 | CC(C)(C)OC(=O)NC1CN(c2c(F)cc3c(=O)c(C(=O)O)cn(C4CC4)c3c2Cl)CC12CC2 (configuration not stated)
82 to 83 | CCOC(=O)c1ccc(N2CCOCC2)cc1
143 to 144 | O=C(NCCCCN1CCC(c2ccccc2)CC1)c1ccc2ccccc2c1
161 to 163 | COc1ccc(C(=O)Nc2c(C)c(C)c3c(c2C)C(c2ccc(C)cc2)C(C)(C)O3)cc1 (configuration not stated)
152 to 153 | Cc1oc(-c2ccccc2)nc1COc1ccc(COc2nn(-c3ccccc3)cc2C=O)cc1
203 to 204 | CC1(C)CCC(C)(C)c2cc(C(N)C(=O)Nc3ccc(C(=O)O)cc3)ccc21 (configuration not stated)
68 to 70 | COC(=O)CCCCCCNC(=O)C(CS)Cc1ccccc1 (configuration not stated)
129 | OCCON=Cc1cnc2ccccc2c1

melting point [°C] | Compound
203 to 205 | CSc1ccc(-c2nc(SC)c(C#N)c(=O)n2-c2ccc(C)cc2C)cc1
177 | CNc1nn2cc(-c3ccccc3)nc2s1
166 to 169 | CCc1noc(C)c1-c1[nH]c2ccccc2c1C(O)CCN(C)C (configuration not stated)
194 | CCOC(=O)C(=O)Nc1ccc(C#N)c(C#N)c1
136 | CCn1cnc2c(Nc3cccc(F)c3)nc(Cl)nc21
73.5 to 75 | CC(=O)Oc1cc(C(C)C)c(OC(C)=O)c(C(C)C)c1
127 to 129 | Cc1cc(CNc2cccc3c2C(=O)N(C2CCC(=O)NC2=O)C3=O)oc1C (configuration not stated)
75 to 76 | CC(=O)OCN1C(=O)CON(C(C)=O)C1c1ccccc1 (configuration not stated)
120 to 124 | Cn1c(CC#N)ccc1C(=O)c1ccc(Cl)cc1
165 to 166 | COc1cc(OCC(CO)CO)c(C=CC(=O)c2ccc(S(=O)(=O)Nc3cc(C)on3)cc2)cc1-c1cccs1
228 to 230 | CC(C)C(NS(=O)(=O)c1ccc(Cl)cc1)C(=O)Nc1ccc(CC(=O)O)cc1 (racemic)
259 to 261 | CN1C(C(=O)Nc2cccccc2=O)=C(O)c2ccccc2S1(=O)=O
233 to 235 | Cc1cc(-c2noc3cc(O)ccc23)ccc1O
266 to 267 | CCCCCCCCCCCC(=O)Nc1ccc2nc(S)[nH]c2c1
66 to 68 | CCOC(=O)c1csc(Br)n1
168 to 169 | CCOC(=O)c1cn(C2CC2)c2c(F)c(N3CCOC(CN(C)C)C3)c(F)cc2c1=O (configuration not stated)
203 to 206 | COc1ccc(C2=NNC(=O)C(C)C2)cc1 (configuration not stated)
128 to 130 | Cn1cc(Oc2cc(Cl)cc(Cl)c2)c(=O)c(-c2cccc(C(F)(F)F)c2)c1
100 to 101 | COc1ccc(OC(=O)c2c(Cl)cccc2Cl)cc1OC1CCCC1
104 to 113 | CS(=O)(=O)Nc1cc([C@@H](O)CNC2CCN(c3ccc(NC(=O)c4ccc5c(c4)OCO5)cc3)CC2)ccc1O
53 to 54 | O=Cc1cnccc1Cl
178 to 180 | CC(C)(C)c1ccc(C2(C(N)=O)CC2)cc1

melting point [°C] | Compound
190 to 192 | Cc1cccc2c1nc(COc1ccc(Cl)cc1)n2CCC(Cc1ccccc1)C(=O)O (configuration not stated)
410 to 420 | O=c1ccn(-c2cc3[nH]c(=O)c(=O)[nH]c3cc2C(F)(F)F)cc1
186 to 188 | CC(C)(C)OC(=O)N[C@@H]1C[C@H](C(=O)O)Nc2cc(Cl)cc(Cl)c21 (relative stereo)
81 to 82 | Nc1ccc(C2OCCO2)nc1
132 to 134 | Nc1ncn(C2OC(CO)C(O)C2O)c2nc(=O)sc1-2 (configuration not stated)
151 to 153 | O=C(O)CCCCCCc1ncsc1C(=O)O
132 to 134 | CCOCC(=O)Nc1ccc(Br)c(-n2nc(CC)n(Cc3ccc(-c4ccccc4S(=O)(=O)NC(=O)OC(C)(C)C)cc3F)c2=O)c1
125 to 129 | [N-]=[N+]=NCc1ccc2c(NC(=O)c3ccccc3)nccc2c1
172 to 173 | O=C(NCc1ccccc1)Nc1ccc(N2CC(c3ccccc3)CC2=O)cn1 (configuration not stated)
112 to 113 | CC[C@@H](c1ccccc1)N(Cc1ccc(C(=O)O)cn1)S(=O)(=O)c1ccc(Cl)cc1
197 to 202 | N#Cc1nn(-c2c(Cl)cc(-c3ccc(C(F)(F)F)cc3)cc2Cl)c(N)c1S(=O)(=O)C(F)(F)F
138 to 140 | COc1ccc(C(=O)C[N+](=O)[O-])c(O)c1
235 | O=C(O)CSc1c(-c2cc(Cl)ccc2O)c2cc(C(F)(F)F)ccc2[nH]c1=O
95 | O=C(NCCO)C(Oc1ccc(F)c(C(F)(F)F)c1)c1ccc(Cl)cc1 (configuration not stated)
250 to 252 | Oc1ccc(-c2nc(-c3ccccc3)nc(-c3ccc(O)cc3O)n2)c(O)c1
182 to 183 | O=C(O)c1ccc(OCCCO/N=C/c2cc(C(F)(F)F)cc(C(F)(F)F)c2)cc1O
79 to 80 | Cc1sc(N2CCCCC2)nc1CCl
210 to 211 | CC(C)(C)c1nc(-c2ncn3c2COC(=O)c2ccccc2-3)no1
311 to 313 | O=C1NC(=O)c2c1c(-c1ccccc1Cl)cc1sc3ccc(O)cc3c21
218 | O=C1C(c2ccccc2)=CC2CCCCCC12 (configuration not stated)
275 to 276 | CON(C(=O)Nc1nc(OCC(F)(F)F)cc(OCC(F)(F)F)n1)c1ccc(Cl)cc1
213 to 214 | N#CCNC(=O)c1nn(C2CCCCO2)cc1NC(=O)c1ccccn1 (configuration not stated)

Compound | melting point [°C]
COc1ccc(C(C)(C)OC)cc1CN[C@H]1C2CCN(CC2)[C@H]1C(c1ccccc1)c1ccccc1 | 127
CC(C)(CF)C(=O)Cn1cncn1 | 59
CC(C)CC(=O)Nc1cccc(-c2ccnc3c(C(=O)C4CCCC4)cnn23)c1 | 69 to 71
CN1CCN(c2ccc3nc(N)c(C#N)c(O)c3c2)CC1 | 156
CCOC(=O)N1CCN(C(=O)OC2c3ccccc3C(=O)N2c2ccc(Cl)cn2)CC1 (configuration not stated) | 160
CC(C)OC(=O)Nc1cccc(-c2ccnc3c(C(=O)c4ccco4)cnn23)c1 | 140 to 143
